Molecules are shown by their SMILES.

For this experiment, the target named is T1, RORγ (Homo sapiens, UniProt P51449).
T1 construct: expressed in transfected cells; host or cells: HEK 293 cells, transiently transfected
T1 sequence (P51449 269-508 limits assumed): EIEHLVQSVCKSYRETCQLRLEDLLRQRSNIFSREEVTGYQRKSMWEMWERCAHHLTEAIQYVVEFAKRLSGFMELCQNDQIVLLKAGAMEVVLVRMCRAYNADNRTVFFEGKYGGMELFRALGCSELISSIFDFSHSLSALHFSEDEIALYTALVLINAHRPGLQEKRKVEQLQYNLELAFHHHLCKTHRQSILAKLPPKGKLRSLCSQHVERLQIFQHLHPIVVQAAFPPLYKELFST
As to the kind of experiment: Reporter Gene Assay (RGA): RORγ transactivation of a luciferase reporter in transiently transfected HEK 293 cells. The following applies: HEK 293 cells cotransfected with pGL4.3 luc2P/GAL4UAS and pBIND Gal4DBD hRORC LBD; 20-24 h incubation; luciferase readout. Format: cell-based. The procedure:
Reporter Gene Assay (RGA)
A nuclear receptor transactivation assay is performed to quantitate the ability of test compounds to inhibit RORγ transactivation of a luciferase reporter. […] The system uses transiently transfected HEK 293 cells cotransfected with two plasmids (pGL4.3, luc2P/GAL4UAS/Hygro, and pBIND, Gal4DBD hRORC LBD1-3). The positive control is co-transiently transfected with both plasmids, and the negative control contains the pGL4.3 promoter sequence. Assays are assembled in 384 well plates where transiently transfected cells and test compound at varying concentrations are incubated for 20-24 h. The next day, assays plates are taken out and equilibrated at RT for 20-30 minutes. Bright-Glo™ Luciferase Assay System is used to detect Luciferase production. After addition of Bright GLO detection reagent, the plates are incubated at RT for 20 minutes. The plates are read on an Envision plate reader to measure luminescence signal. The RLU signal is converted to POC relative to control and blank wells.
Compound Dilution Buffer:
Bright Glo Luciferase Assay System: Promega #E2620
Thaw lysis buffer provided in kit, add 100 mL lysis buffer to substrate powder.
Take `CCS(=O)(=O)c1ccc(CNc2nc3ncc(-c4c(OC)ncnc4C4CC4)nc3n([C@@H](C)C3CC3)c2=O)nc1` [Example 3]: the IC50 (in general, the concentration needed to halve the response being measured) was found to be 149 nM. The molecule `CCS(=O)(=O)c1ccc(CNc2nc3ncc(-c4c(C)ncnc4C4CC4)nc3n([C@@H](C)C3CC3)c2=O)nc1` [Example 4] gave an IC50 of 269 nM.

In the case of `CCS(=O)(=O)c1ccc(CNc2nc3ncc(-c4c(C)nc(N)nc4C4CC4)nc3n([C@@H](C)C3CC3)c2=O)nc1` [Example 5], half-maximal inhibition (IC50) was put at 274 nM. Molecule `CCS(=O)(=O)c1ccc(CNc2nc3ncc(-c4nccnc4C4CC4)nc3n([C@@H](C)C3CC3)c2=O)nc1` [Example 6] gave an IC50 of 454 nM.

The molecule `CC[C@H](C)n1c(=O)c(NCc2ccc(S(=O)(=O)CC)cn2)nc2ncc(-c3c(OC)ncnc3C3CC3)nc21` [Example 7] displayed an IC50 of 210 nM. Next, `CC[C@H](C)n1c(=O)c(NCc2ccc(S(=O)(=O)CC)cn2)nc2ncc(-c3c(C)ncnc3C3CC3)nc21` [Example 8]: 338 nM.

For the molecule `CC[C@H](C)n1c(=O)c(NCc2ccc(S(C)(=O)=O)cn2)nc2ncc(-c3c(C)ncnc3C3CC3)nc21` [Example 9], the IC50 came out at 1330 nM. Next, `CC[C@H](C)n1c(=O)c(NCc2ccc(S(=O)(=O)CC)nc2)nc2ncc(-c3c(C)ncnc3C3CC3)nc21` [Example 10]: 2740 nM. Next, `CCS(=O)(=O)c1ccc(CNc2nc3nnc(-c4c(C)ncnc4C4CC4)cc3n([C@@H](C)C3CC3)c2=O)nc1` [Example 12]: 2900 nM.
